# Columns and labels:
# SW1463 = assay: Cell proliferation assay, SW1463; format: cell-based; conditions: Homo sapiens; SW1463, PF-309 alone, 72 h; 1 uM was the maximum concentration used
# Description: (§1) Cytotoxic/proliferation effects were determined using the sulforhodamine B (SRB) assay (Skehan et al., [1990]) or by resazurin. Briefly, cells in logarithmic growth phase were transferred to 96 well flat bottom plates with lids. One-hundred microliter cell suspensions containing 1500–5000 viable cells were plated into each well and incubated overnight prior to exposure with increasing concentrations of PF-309 for 3–5 days, dependent upon cell type. Media was removed and cells were fixed with cold 10% trichloroacetic acid for 30 min at 4°C. Cells were then washed with water and stained with 0.4% SRB (Fisher Sci., Pittsburgh, PA, USA) for 30 min at room temperature, washed again with 1% acetic acid, followed by stain solubilization with 10 mM tris at room temperature. The plate was then read on a plate reader (Biotek Synergy 2, Winooski, VT, USA) set at an absorbance wavelength of 565 nm. Cell proliferation curves were derived from the raw absorbance (OD) data.
# (§2) Since PF-309 appeared to be a strong P-gp and BCRP substrates, we sought to evaluate if the transporters influenced sensitivity in vitro. We evaluated the sensitivity of CRC cell lines to PF-309 treatment in a panel of 27 lines. Cells were exposed to PF-309 at a range of concentrations for 72 h and cell content measured by SRB assay (see Pitts et al., [2013]). […]
# HCT116 = assay: Cell proliferation assay, HCT116; format: cell-based; conditions: Homo sapiens, HCT-116; HCT116, 72 h, SRB assay
# Description: as §1, §2
# DLD1 PgP_KD2 = assay: Proliferation after shRNA knockdown of P-gp, DLD1 PgP_KD2; format: cell-based; conditions: Homo sapiens, DLD-1; DLD1 PgP_KD2 :50, P-gp shRNA knockdown
# Description: as §1
# The pGIPZ Pgp-specific shRNA expression cassettes, along with control shRNA plasmids including the original pGIPZ vector were purchased from Open Biosystems (Birmingham, AL, USA). […] Successful knockdown of specific genes and gene products was confirmed by semi-quantitative RT-PCR and immunoblotting with specific antibodies. […]
# GEO cell line xenograft = assay: CRC cell line xenograft efficacy, GEO; format: in vivo, mice; conditions: 25 mg/kg orally twice daily, 14–28 days, end of study tumor volumes
# Description: For cell line xenografts, CRC cells were harvested in exponential phase growth and resuspended in a 1:1 mixture of serum-free RPMI 1640 and Matrigel (BD Biosciences). Five to ten million cells per mouse were injected subcutaneously into the flank using a 23-gauge needle. Mice were monitored daily for signs of toxicity and were weighed twice weekly. Tumor size was evaluated twice per week by caliper measurements using the following formula: tumor volume = length × width^2 × 0.52. When tumors reached 200–300 mm^3 mice were randomized into two groups with at least 10 tumors per group. Mice were then treated for 14–28 days (until control tumor volume reach ∼1500 mm^3) with either vehicle control (0.5% methylcellulose), or PF-3758309 (25 mg/kg) twice daily by oral gavage.
# Human tumor xenograft models were used to evaluate the efficacy of PF-309 in vivo. Eleven different CRC cell line tumor xenografts were treated with 25 mg/kg PF-309 twice daily by oral gavage for 14–28 days (until control tumor volumes reached ∼1500 mm^3). Tumor volumes were measured throughout the study and the % growth inhibition was calculated from the average end of study tumor volumes by:
# % Growth Inhibition= (average control volume−average treated volume)/average control volume×100%
compound,measurement,setting,value
Cc1nc(Nc2n[nH]c3c2CN(C(=O)N[C@H](CN(C)C)c2ccccc2)C3(C)C)c2sccc2n1 [PF-309],IC50,SW1463,> 1000 nM
same,IC50,HCT116,4.7 ± 0.9 nM
same,IC50,DLD1 PgP_KD2,18 nM
same,% Growth inhibition,GEO cell line xenograft,42%

# — PMC3605511, “Tumor P-Glycoprotein Correlates with Efficacy of PF-3758309 in in vitro and in vivo Models of Colorectal Cancer” (Frontiers in Pharmacology, 2013)
